Experimental data as given in paper PMC7613515, “Reading and erasing of the phosphonium analogue of trimethyllysine by epigenetic proteins” (Communications Chemistry, 2022).

Target: T1, KDM5APHD3 (JARID1A-PHD3, residues M1489–V1641) (Homo sapiens, UniProt P29375)
T1 construct: KDM5APHD3 (JARID1A-PHD3, residues M1489–V1641); made in house; host or cells: E. coli
T1 sequence (P29375 1489-1641): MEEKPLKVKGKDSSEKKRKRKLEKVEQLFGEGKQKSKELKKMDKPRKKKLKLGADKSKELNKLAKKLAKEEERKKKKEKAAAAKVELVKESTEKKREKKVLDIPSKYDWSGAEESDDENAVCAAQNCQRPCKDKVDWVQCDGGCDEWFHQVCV
Assay: ITC, association of histone H3 peptides with KDM5APHD3
Assay type: binding
Settings: 25 °C, H3 1-10 peptide, Tris (50 mM), NaCl (20 mM), pH 7.5, from 3 to 5 experiments, ± SD
Description: We investigated the thermodynamics of association of the H3KP4me3 peptide with five representative human reader domains containing either a PHD zinc finger or TTD, i.e. KDM5APHD3 (JARID1A-PHD3, residues M1489–V1641)[10], TAF3PHD (R857–K924)[22], BPTFPHD (L2583–N2751)[23], SGF29TTD (R115–K293)[24] and KDM4ATTD (JMJD2A, Q897-P1011)[25], selected on the basis of their preference for binding Ν^ε-trimethyllysine over other (non)methylation marks (Kme0 < Kme1 < Kme2 < Kme3), and their domain and aromatic cage diversity. The recombinant readers were produced in E. coli following reported procedures. Isothermal titration calorimetric (ITC) analyses were used to determine the dissociation constant (Kd), the Gibbs free energy of binding (ΔG°), the enthalpy of binding (ΔH°), and the entropy of binding (ΔS°). […] (Table 1, Fig. 2, Supplementary Fig. 1).
The following purified reader domains: TAF3PHD (R857-K924), KDM5APHD3 (JARID1A, M1489-V1641), BPTFPHD (L2583-N2751), KDM4ATTD (JMJD2A, Q897-P1011) and SGF29TTD (R115-K293) were prepared as reported[10],[22]–[26]. The histone lysine demethylase were produced and purified to high purity via reported procedures KDM3A (JMJD1A, T515-S1317)[41], KDM4AJmjC[39] (JMJD2A, M1-L359), KDM4EJmjC (JMJD2E, M1–Q337)[34] and KDM7B[40] (PHF8, M37-N483 [NP_001171]). KDM5DJmjC was produced using an N-terminal hexa-His tagged KDM4D (KDM4DM1-L358) DNA construct, transformed into BL21(DE3) competent cells for recombinant protein production. Colonies were used to inoculate of LB media (50 mL) containing kanamycin (50 µg·mL^−1) and chloramphenicol (34 µg·mL^−1), which was placed in a 37 °C shaker overnight. The starter culture (10 mL) was used to inoculate TB media (6 × 1 L) containing kanamycin (50 µg·mL^−1) in 2 L baffled shaker flasks. After reaching an of OD600 of ~0.8, the temperature was reduced to 18 °C; at OD600 ~0.9 the cells were induced by the IPTG (0.5 mM) addition. After shaking overnight, the culture was centrifuged (5000 rpm, 10 mins), the media was decanted, and the cell pellet was suspended in Lysis Buffer [HEPES (50 mM), NaCl (500 mM), imidazole (20 mM), glycerol (5%) and TCEP (0.5 mM) in water (pH 7.4)]. The suspension was lysed by passaging through a high-pressure cell breaker (Avestin – EmulsiFlex-C5) for three rounds. The lysate was cleared by centrifugation (60 minutes, 36,000 × g, 4 °C), then loaded onto a Ni NTA gravity column. […]
ITC studies followed a reported procedure. […] Histone peptide titrations were performed with the same reader batches. Solutions of the reader in buffer (25–40 µM) and of the histone H3 peptide (350–600 µM) in buffer were prepared. […] Heats of dilution for histone peptides determined in control experiments were subtracted from the titration binding data. […]

C[C@H](N)C(=O)N[C@@H](CCCNC(=N)N)C(=O)N[C@H](C(=O)N[C@@H](CCCC[P+](C)(C)C)C(=O)N[C@@H](CCC(N)=O)C(=O)N[C@H](C(=O)N[C@@H](C)C(=O)N[C@@H](CCCNC(=N)N)C(=O)N[C@@H](CCCCN)C(=O)N[C@@H](CO)C(N)=O)[C@@H](C)O)[C@@H](C)O [H3KP4me3]
-TΔS°: 1.9 ± 0.1 kcal/mol
ΔG°: -9.1 ± 0.1 kcal/mol
ΔH°: -11.0 ± 0.1 kcal/mol
